Data as given in PubChem BioAssay (NCI).
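Each compound was tested at five concentrations against cells in 96-well plates for 48 hours. GI50 marks 50% less growth. Definition used: TGI = concentration required for complete inhibition of growth.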

How the values were obtained:
Assay in all cases: DTP human tumour cell line panel, 48 h
786-0 renal = tested on: 786-0 renal
HOP-62 NSCLC = tested on: HOP-62 NSCLC
SK-OV-3 ovarian = tested on: SK-OV-3 ovarian
PC-3 prostate = tested on: PC-3 prostate
SK-MEL-28 melanoma = tested on: SK-MEL-28 melanoma
SW-620 colon = tested on: SW-620 colon
A498 renal = tested on: A498 renal
SF-268 CNS = tested on: SF-268 CNS
U251 CNS = tested on: U251 CNS
HCT-116 colon = tested on: HCT-116 colon
MDA-MB-435 = tested on: MDA-MB-435
HL-60(TB) leukemia = tested on: HL-60(TB) leukemia
HT29 colon = tested on: HT29 colon
COLO 205 colon = tested on: COLO 205 colon
CAKI-1 renal = tested on: CAKI-1 renal
TK-10 renal = tested on: TK-10 renal
HCC-2998 colon = tested on: HCC-2998 colon
OVCAR-3 ovarian = tested on: OVCAR-3 ovarian
M14 melanoma = tested on: M14 melanoma
UACC-257 melanoma = tested on: UACC-257 melanoma
SK-MEL-5 melanoma = tested on: SK-MEL-5 melanoma
HS 578T breast = tested on: HS 578T breast
OVCAR-8 ovarian = tested on: OVCAR-8 ovarian
SN12C renal = tested on: SN12C renal
BT-549 breast = tested on: BT-549 breast
NCI/ADR-RES ovarian = tested on: NCI/ADR-RES ovarian
SR leukemia = tested on: SR leukemia
DU-145 prostate = tested on: DU-145 prostate
OVCAR-4 ovarian = tested on: OVCAR-4 ovarian
UACC-62 melanoma = tested on: UACC-62 melanoma
NCI-H460 lung = tested on: NCI-H460 lung
A549 NSCLC = tested on: A549 NSCLC
MALME-3M melanoma = tested on: MALME-3M melanoma
T-47D breast = tested on: T-47D breast
MCF7 breast = tested on: MCF7 breast
OVCAR-5 ovarian = tested on: OVCAR-5 ovarian
MDA-MB-231 breast = tested on: MDA-MB-231 breast
SNB-75 CNS = tested on: SNB-75 CNS
KM12 colon = tested on: KM12 colon
EKVX NSCLC = tested on: EKVX NSCLC
CCRF-CEM leukemia = tested on: CCRF-CEM leukemia
HCT-15 colon = tested on: HCT-15 colon
HOP-92 NSCLC = tested on: HOP-92 NSCLC
NCI-H226 lung = tested on: NCI-H226 lung
SNB-19 CNS = tested on: SNB-19 CNS
LOX IMVI melanoma = tested on: LOX IMVI melanoma
RPMI-8226 leukemia = tested on: RPMI-8226 leukemia
NCI-H522 lung = tested on: NCI-H522 lung
ACHN renal = tested on: ACHN renal
K-562 leukemia = tested on: K-562 leukemia
NCI-H23 lung = tested on: NCI-H23 lung
SF-295 CNS = tested on: SF-295 CNS
IGROV1 ovarian = tested on: IGROV1 ovarian
RXF 393 renal = tested on: RXF 393 renal
SK-MEL-2 melanoma = tested on: SK-MEL-2 melanoma
UO-31 renal = tested on: UO-31 renal
MOLT-4 leukemia = tested on: MOLT-4 leukemia

Structure (SMILES): CN(C)CCN1C(=O)c2c(c3c4ccccc4n4c3c3c2c2ccccc2n3C2CC(O)C(O)C4(C)O2)C1=O (centres undefined)
- GI50 (786-0 renal): 1.93 µM
- TGI (786-0 renal): 8.37 µM
- GI50 (HOP-62 NSCLC): 1.24 µM
- TGI (HOP-62 NSCLC): 6.73 µM
- GI50 (SK-OV-3 ovarian): 1.8 µM
- TGI (SK-OV-3 ovarian): 9.9 µM
- GI50 (PC-3 prostate): 2.05 µM
- TGI (PC-3 prostate): 9.48 µM
- GI50 (SK-MEL-28 melanoma): 3.02 µM
- TGI (SK-MEL-28 melanoma): 10.4 µM
- GI50 (SW-620 colon): 0.407 µM
- TGI (SW-620 colon): 7.7 µM
- GI50 (A498 renal): 1.24 µM
- TGI (A498 renal): 7.88 µM
- GI50 (SF-268 CNS): 1.46 µM
- TGI (SF-268 CNS): 8.76 µM
- GI50 (U251 CNS): 1.04 µM
- TGI (U251 CNS): 7.29 µM
- GI50 (HCT-116 colon): 0.626 µM
- TGI (HCT-116 colon): 6.71 µM
- GI50 (MDA-MB-435): 2 µM
- TGI (MDA-MB-435): 7.99 µM
- GI50 (HL-60(TB) leukemia): 2.47 µM
- TGI (HL-60(TB) leukemia): 12.8 µM
- GI50 (HT29 colon): 1.04 µM
- TGI (HT29 colon): 7.54 µM
- GI50 (COLO 205 colon): 1.23 µM
- TGI (COLO 205 colon): 7.1 µM
- GI50 (CAKI-1 renal): 1.98 µM
- TGI (CAKI-1 renal): 12 µM
- GI50 (TK-10 renal): 1.32 µM
- TGI (TK-10 renal): 13.5 µM
- GI50 (HCC-2998 colon): 3.93 µM
- TGI (HCC-2998 colon): 10.6 µM
- GI50 (OVCAR-3 ovarian): 2.27 µM
- TGI (OVCAR-3 ovarian): 11.1 µM
- GI50 (M14 melanoma): 1.71 µM
- TGI (M14 melanoma): 7.47 µM
- GI50 (UACC-257 melanoma): 3.32 µM
- TGI (UACC-257 melanoma): 9.79 µM
- GI50 (SK-MEL-5 melanoma): 1.58 µM
- TGI (SK-MEL-5 melanoma): 7.14 µM
- GI50 (HS 578T breast): 2.34 µM
- TGI (HS 578T breast): 12 µM
- GI50 (OVCAR-8 ovarian): 1.47 µM
- TGI (OVCAR-8 ovarian): 9.39 µM
- GI50 (SN12C renal): 0.914 µM
- TGI (SN12C renal): 7.87 µM
- GI50 (BT-549 breast): 5.32 µM
- TGI (BT-549 breast): 13 µM
- GI50 (NCI/ADR-RES ovarian): 8.2 µM
- TGI (NCI/ADR-RES ovarian): 23.3 µM
- GI50 (SR leukemia): 0.207 µM
- TGI (SR leukemia): 6.17 µM
- GI50 (DU-145 prostate): 1.12 µM
- TGI (DU-145 prostate): 9.42 µM
- GI50 (OVCAR-4 ovarian): 2.69 µM
- TGI (OVCAR-4 ovarian): 13.6 µM
- GI50 (UACC-62 melanoma): 0.767 µM
- TGI (UACC-62 melanoma): 3.93 µM
- GI50 (NCI-H460 lung): 0.232 µM
- TGI (NCI-H460 lung): 5.08 µM
- GI50 (A549 NSCLC): 0.643 µM
- TGI (A549 NSCLC): 7.4 µM
- GI50 (MALME-3M melanoma): 2.14 µM
- TGI (MALME-3M melanoma): 9.3 µM
- GI50 (T-47D breast): 2.39 µM
- TGI (T-47D breast): 12.1 µM
- GI50 (MCF7 breast): 0.58 µM
- TGI (MCF7 breast): 7.44 µM
- GI50 (OVCAR-5 ovarian): 4.43 µM
- TGI (OVCAR-5 ovarian): 27.6 µM
- GI50 (MDA-MB-231 breast): 2.61 µM
- TGI (MDA-MB-231 breast): 11.5 µM
- GI50 (SNB-75 CNS): 1.41 µM
- TGI (SNB-75 CNS): 8.29 µM
- GI50 (KM12 colon): 1.74 µM
- TGI (KM12 colon): 10.2 µM
- GI50 (EKVX NSCLC): 2.24 µM
- TGI (EKVX NSCLC): 13 µM
- GI50 (CCRF-CEM leukemia): 1.59 µM
- TGI (CCRF-CEM leukemia): 14.4 µM
- GI50 (HCT-15 colon): 1.59 µM
- TGI (HCT-15 colon): 8.72 µM
- GI50 (HOP-92 NSCLC): 2.6 µM
- TGI (HOP-92 NSCLC): 11.9 µM
- GI50 (NCI-H226 lung): 2.26 µM
- TGI (NCI-H226 lung): 29 µM
- GI50 (SNB-19 CNS): 1.58 µM
- TGI (SNB-19 CNS): 11.8 µM
- GI50 (LOX IMVI melanoma): 0.448 µM
- TGI (LOX IMVI melanoma): 1.89 µM
- GI50 (RPMI-8226 leukemia): 1.58 µM
- TGI (RPMI-8226 leukemia): 7.82 µM
- GI50 (NCI-H522 lung): 0.855 µM
- TGI (NCI-H522 lung): 3.66 µM
- GI50 (ACHN renal): 0.816 µM
- TGI (ACHN renal): 3.37 µM
- GI50 (K-562 leukemia): 0.84 µM
- TGI (K-562 leukemia): 7.54 µM
- GI50 (NCI-H23 lung): 1.81 µM
- TGI (NCI-H23 lung): 9.75 µM
- GI50 (SF-295 CNS): 1.45 µM
- TGI (SF-295 CNS): 16.6 µM
- GI50 (IGROV1 ovarian): 1.41 µM
- TGI (IGROV1 ovarian): 13.1 µM
- GI50 (RXF 393 renal): 1.89 µM
- TGI (RXF 393 renal): 8.27 µM
- GI50 (SK-MEL-2 melanoma): 2.97 µM
- TGI (SK-MEL-2 melanoma): 9.2 µM
- GI50 (UO-31 renal): 1.71 µM
- TGI (UO-31 renal): 13.9 µM
- GI50 (MOLT-4 leukemia): 0.209 µM
- TGI (MOLT-4 leukemia): 10.9 µM
